Assay results: patent publication US5932618A, “Anti-viral agents and methods relating to the use thereof” (Signal Pharmaceuticals, Inc., priority 1996, dated 1999)

Columns and labels:
[1] = tested on: HCMV pol promoter (pol-luc cells); assay: Luciferase reporter assay in pol-luc cells 48 hours after HCMV infection; format: cell-based; settings: 48 hours after infection with 3 pfu/cell HCMV, increasing amounts of compound in DMSO
Method: The Pol promoter sequence, from position -425 to +15, was amplified by PCR using cosmid pCM1058 (Peter Ghazal) as template. The primers are: 5'-[…]-3' (sense primer), and 5'-[…]-3' (antisense primer). These oligo primers introduced a HindIII restriction site at the 5' and 3' end of Pol promoter fragment. The HindIII digested PCR fragment was inserted into HindIII digested pGL2-basic luciferase reporter plasmid (Promega, Madison, Wis.). The promoter direction was determined and PCR fidelity of the promoter sequence was confirmed by sequencing.
(§1) B. Establishment of Stable Cell Lines
(§2) The HCMV permissive human glioblastoma cell line U373 MG was transfected with the constructs described above. […]
(§3) Cells were infected with HCMV (Towne strain, obtained from American Type Culture Collection, Rockville, Md.) at 5-10 pfu/cell. […] Plates were read immediately in a Packard TopCount™ (Packard, Hartford, Conn.). Clones showing high luciferase inducibility were further analyzed by PCR to ascertain the integrity of the reporter transcriptional unit integrated into the genomic DNA. […]
(§4) Cells are maintained in DMEM (Mediatech, Herndon, Va.) supplemented with 10% fetal bovine serum (Gemini Bioproducts, Inc., Calabasas, Calif.), 1% antimycotic/antibiotic (GIBCO, Baltimore, Md.) and 0.6 μg/mL G148 (GIBCO, Baltimore, Md.). […] Luciferase activity (luminescence) in each well is then measured using a Packard Topcount™. […]

[2] = tested on: HCMV pp28 promoter (pp28-luc cells); assay: Luciferase reporter assay in pp28-luc cells 48 hours after HCMV infection; format: cell-based; settings: 48 hours after infection with 3 pfu/cell HCMV, increasing amounts of compound in DMSO
Excerpt: The pp28 promoter sequence, from position -609 to +106, was amplified by PCR using cosmid pCM1 (Peter Ghazal, Scripps Research Institute) as a template. The oligonucleotide primer sequences are:
These oligonucleotides primers introduced a KpnI restriction site at the 5'-end and a HindIII site at the 3'-end of the pp28 promoter fragment. Unique sites, KpnI and HindIII allowed directional cloning into the pGL2-basic luciferase reporter plasmid (Promega, Madison, Wis.), resulting in the pp28-luc promoter construct shown in FIG. 2. The PCR fidelity of the pp28 promoter sequence was confirmed by sequencing.
B. Establishment of Stable Cell Lines […]
as §3, §4

[3] = tested on: MIEP viral immediate early promoter (MIEP-luc cells); assay: Luciferase reporter assay in MIEP-luc cells 48 hours after HCMV infection; format: cell-based; settings: 48 hours after infection with 3 pfu/cell HCMV, increasing amounts of compound in DMSO
Method: The MIEP promoter sequence, from position -1145 to +122, was amplified by PCR using plasmid pSE as a template. The primers are: 5'-[…]-3' (sense primer), and 5'[…]-3' (antisense primer). These oligo primers introduced a KpnI restriction site at the 5' and 3' end of MIEP promoter fragment. The KpnI digested PCR fragment was inserted into KpnI digested pGL2-basic luciferase reporter plasmid (Promega, Madison, Wis.). The promoter direction was determined and PCR fidelity of the promoter sequence was confirmed by sequencing.
as §1, §2, §3, §4

[4] = tested on: β-actin cellular promoter (β-actin-luc cells); assay: Luciferase reporter assay in β-actin-luc cells 48 hours after HCMV infection; format: cell-based; settings: 48 hours after infection with 3 pfu/cell HCMV, increasing amounts of compound in DMSO
Method: This Example illustrates the use of the cell lines of Example 1 for identifying inhibitors of viral gene expression.
Cells are maintained in DMEM (Mediatech, Herndon, Va.) supplemented with 10% fetal bovine serum (Gemini Bioproducts, Inc., Calabasas, Calif.), 1% antimycotic/antibiotic (GIBCO, Baltimore, Md.) and 0.6 μg/mL G148 (GIBCO, Baltimore, Md.). Cells are seeded at 3×10^4 cells per well in flat-bottom, tissue culture treated 96-well plates (Corning, Corning, N.Y.) and incubated for about 18 hours in a 37° C. humidified environment. Appropriately diluted candidate modulators are then added directly to the media on cells to a final concentration of 10 μg/mL, and the plates incubated for 30 minutes at 37° C. HCMV (Towne strain, ATCC) is then added at 3 pfu/cell. Forty-eight hours post-infection, the cells are washed once with PBS (without Ca^++ and Mg^++) and lysed in the 96-well plate. An aliquot of the cell lysate is then transferred to a black 96-well plate (Packard, Hartford, Conn.) and luciferase assay reagent (Promega, Madison, Wis.) is added to the plate. Luciferase activity (luminescence) in each well is then measured using a Packard Topcount™. […]
This Example illustrates anti-viral activity of representative compounds of this invention as determined in accordance with Examples 1-4 above. […]

[5] = tested on: HCMV viral DNA replication; assay: Viral DNA replication determined by dot blot analysis in stable clones; format: cell-based, HCMV (Towne strain); settings: in presence of PAA (200-400 μg/ml), three different stable clones, data not shown
Method: The response of the integrated reporter plasmids to HCMV infection was also examined in the presence and absence of the well characterized viral DNA inhibitor phosphonoacetic acid (PAA, Sigma, St. Louis, Mo., 99.7 purity). The results are presented in FIG. 7 (P-luc), FIG. 8 (pol-luc) and FIG. 9 (pp28-luc). Cells were seeded into a 96 well plate in G418 selection media. The following day, cells were treated in the absence (lanes 1 and 4, panels B and C) or presence of PAA at 200 μg/mL (lanes 2 and 5, panels B and C) and 400 μg/mL (lanes 3 and 6, panels B and C). Cells were then superinfected with HCMV at 10 pfu/cell. Forty-eight hours post-infection, cells were harvested and isolated for either mRNA preparation, protein lysates or the luciferase assay. Luciferase activity measured as described above is shown in panels A of FIGS. 7-9. Northern analyses were performed on mRNA using probes for luciferase, MIEP-, pol- or pp28-specific mRNA and beta-actin mRNA to quantitate the amount of mRNA in each lane (panels B). Protein lysates were used for western blot analysis using antibody specific against luciferase (panels C). […] Viral DNA replication in presence of PAA was inhibited by nearly 90 percent as determined by dot blot analysis in three different stable clones (data not shown). […]

[6] = tested on: U373 MG cells; format: cell-based, human; settings: PAA 200-400 μg/ml, MTS cytotoxicity assay, data not shown

SMILES	inhibition of luciferase reporter expressed from the HCMV pol promoter [1]	inhibition of luciferase reporter expressed from the HCMV pp28 promoter [2]	inhibition of reporter gene expressed from the MIEP viral immediate early promoter [3]	inhibition of reporter gene expressed from the β-actin cellular promoter [4]	inhibition of viral DNA replication [5]	toxicity to U373 MG cells [6]
COc1cc([N+](=O)[O-])ccc1NC(=O)c1cc(Cl)c2ccccc2c1O [compound (V)]	specific inhibition	specific inhibition	no inhibition	no inhibition	–	–
O=C(O)CP(=O)(O)O [PAA, phosphonoacetic acid]	–	–	–	–	~90%	not toxic
O=C(Nc1cccc([N+](=O)[O-])c1)c1cc(Cl)c2ccccc2c1O [compound (IV)]	specific inhibition	specific inhibition	no inhibition	no inhibition	–	–
